Data published in the supplement of paper PMC5412046.
Counter-ions that a name gives are not always drawn.

Each compound was assayed on SB.msgc-1 (assay: AC50 for growth inhibition (viability) (log10 M); higher = less potent). Conditions: SB.msgc-1 (sporadic gastric cancer).
Method in brief: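 In 1536-well plates, each well held 500 patient-derived gastric cancer cells (hereditary or sporadic) in 5 μL medium. Compound in DMSO, 23 nL per well, was pinned in 11 threefold dilutions starting at a final 46 μM. Following 48 h of exposure, cells had CellTiter-Glo for 30 min at room temperature before ViewLux luminescence reading. Only high-quality curve classes from four-parameter fits of DMSO-normalised viability gave the log half-maximal activity concentration.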

| Structure (SMILES) | AC50 for growth inhibition (log10 M) |
| --- | --- |
| Cn1cnc2c(F)c(Nc3ccc(Br)cc3F)c(C(=O)NOCCO)cc21 [ARRY-162] | -6.63 |
| COc1cc(N2CCC(N3CCN(C)CC3)CC2)ccc1Nc1ncnc(Nc2ccccc2[S+](=O)([O-])C(C)C)n1 [ASP-3026] | -4.88 |
| CN1\C=N/C2=CC=C(NC3=CC(=CC=C3C)NC(=O)C4=CC(=CC=C4)C(C)(C)C#N)C=C2C1=O [AZ-628] | -5.23 |
| COc1cc(OC2CCN(C)CC2)ccc1Nc1ncc2c(n1)n(C1CCCC1)c(=O)n2C [AZ-3146] | -4.78 |
| Cc1ncc(-c2ccnc(Nc3ccc([S+](C)(=O)[O-])cc3)n2)n1C(C)C [AZD-5438] | -5.78 |
| NC(=O)Nc1cc(-c2cccc(F)c2)sc1C(=O)N[C@H]1CCCNC1 [AZD-7762] | -6.73 |
| C[C@]\12CC[C@H](O)CC1=C/C[C@@H]3[C@@H]2CC[C@@]\4(C)[C@H]3C\C=C4C5=CN=CC=C5 [Abiraterone] | -5.19 |
| COc1cc(C)c(/C=C/C(C)=C/C=C/C(C)=C/C(=O)O)c(C)c1C [Acitretin] | -4.73 |
| O=C(Nc1cccc(Br)c1)c1cccc([S+](=O)([O-])N2CCCCCC2)c1 [Ak-7] | -4.73 |
| CCC[S+]([O-])c1ccc2[nH]c(NC(=O)OC)nc2c1 (stereo not given) [Albendazole Oxide] | -4.68 |
| NC12CC3CC(CC(C3)C1)C2 [Amantadine hydrochloride] | -4.68 |
| Nc1nc(N)c2nc(CNc3ccc(C(=O)NC(CCC(=O)O)C(=O)O)cc3)cnc2n1 (stereo not given) [Aminopterin] | -7.63 |
| COc1ccc(C(=O)N2CCCC2=O)cc1 [Aniracetam] | -4.68 |
| CCOC(=O)c1c(CSc2ccccc2)n(C)c2cc(Br)c(O)c(CN(C)C)c12 [Arbidol] | -4.63 |
| COC(=O)\C1=C\CCN(C)C1 [Arecoline] | -4.68 |
| O=C1CCc2ccc(OCCCCN3CCN(c4cccc(Cl)c4Cl)CC3)cc2N1 [Aripiprazole] | -4.73 |
| CO[C@H]1O[C@@H]2O[C@@]3(C)CC[C@H]4[C@H](C)CC[C@@H]([C@H]1C)[C@@]24OO3 [Artemether] | -5.98 |
| C[C@@H]1CC[C@H]2[C@@H](C)C(=O)O[C@@H]3O[C@@]4(C)CC[C@@H]1[C@]32OO4 [Artemisinin] | -6.93 |
| C[C@H]1[C@H](O)O[C@@H]2O[C@@]3(C)CC[C@H]4[C@H](C)CC[C@@H]1[C@@]24OO3 [Artenimol] | -5.68 |
| CC(C)c1c(C(=O)Nc2ccccc2)c(-c2ccccc2)c(-c2ccc(F)cc2)n1CC[C@@H](O)C[C@@H](O)CC(=O)[O-] [Atorvastatin calcium] | -4.68 |
| CC[P](CC)(CC)=[Au][S][C@@H]1OC(COC(C)=O)[C@@H](OC(C)=O)[C@H](OC(C)=O)C1OC(C)=O (stereo not given in full) [Auranofin] | -5.53 |
| NC(=O)[C@@H](CCC(F)(F)F)N(Cc1ccc(-c2ncon2)cc1F)[S+](=O)([O-])c1ccc(Cl)cc1 [Avagacestat] | -4.83 |
| CC(C)c1cc(C(C)C)c(CC(=O)N[S+](=O)([O-])Oc2c(C(C)C)cccc2C(C)C)c(C(C)C)c1 [Avasimibe] | -4.78 |

| Structure (SMILES) | AC50 for growth inhibition (log10 M) |
| --- | --- |
| CNC(=O)c1ccccc1Sc1ccc2c(/C=C/c3ccccn3)n[nH]c2c1 [Axitinib] | -4.68 |
| Cn1cnc([N+](=O)[O-])c1Sc1ncnc2nc[nH]c12 [Azathioprine] | -5.43 |
| CCc1cc(/C(C)=N/OCc2ccc(C3CCCCC3)c(C(F)(F)F)c2)ccc1CN1CC(C(=O)O)C1 [BAF-312] | -4.73 |
| Cc1nc2cnc3ccc(C#Cc4cccnc4)cc3c2n1-c1ccc(C(C)(C)C#N)cc1 [BAG-956] | -5.93 |
| CC[C@@H]1C(=O)N(C)c2cnc(Nc3ccc(C(=O)NC4CCN(C)CC4)cc3OC)nc2N1C1CCCC1 [BI-2536] | -7.28 |
| C/C(=C\C(=O)Nc1ccccc1C(=O)O)c1ccc2ccccc2c1 [BIBR 1532] | -4.78 |
| Cc1nc(NC(=O)N2CCC[C@H]2C(N)=O)sc1-c1ccnc(C(C)(C)C(F)(F)F)c1 [BYL-719] | -4.88 |
| C[C@H]1CC2C3CCC/4=C/C(=O)/C=C\[C@]4(C)[C@@]3(F)[C@@H](O)C[C@]2(C)[C@@]1(O)C(=O)CO (stereo not given in full) [Betamethasone] | -4.88 |
| C=C(C)[C@@H]1CC[C@]2(C(=O)O)CC[C@]3(C)[C@H](CC[C@@H]4[C@@]5(C)CC[C@H](O)C(C)(C)[C@@H]5CC[C@]43C)[C@@H]12 [Betulinic acid] | -4.83 |
| CC(C)(C)[C@]1(O)C[C@@H]2OC(=O)C[C@@]23C(=O)O[C@@H]2OC(=O)[C@H](O)C213 (stereo not given in full) [Bilobalide] | -4.93 |
| CC(C)(OCc1nn(Cc2ccccc2)c2ccccc12)C(=O)O [Bindarit] | -5.08 |
| COc1cc(Nc2c(C#N)cnc3cc(OCCCN4CCN(C)CC4)c(OC)cc23)c(Cl)cc1Cl [Bosutinib] | -5.58 |
| CCCC1OC2C[C@H]3[C@@H]4CCC5=CC(=O)C=C[C@]5(C)[C@H]4C(O)C[C@]3(C)[C@]2(C(=O)CO)O1 (stereo not given in full) [Budesonide] | -4.68 |
| Clc1ccc(CCC(Cn2ccnc2)Sc2c(Cl)cccc2Cl)cc1 (stereo not given) [Butoconazole nitrate] | -4.68 |
| C=C1C(=O)OC(CCCCCCCC)C1C(=O)O (stereo not given) [C-75] | -4.58 |
| Cc1ccc(Nc2cc(-c3cccc(N4C(=O)c5ccccc5C4=O)c3)ncn2)cc1N[S+](C)(=O)[O-] [CDK9 inhibitor] | -4.63 |
| Cn1c(Nc2ccc(C(F)(F)F)cc2)nc2cc(Oc3ccnc(-c4nc(C(F)(F)F)c[nH]4)c3)ccc21 [CHIR-265] | -6.68 |
| Clc1ccc(-c2nc3sccn3c2/C=N/OCc2ccc(Cl)c(Cl)c2)cc1 [CITCO] | -4.73 |
| CCCn1c(=O)c2[nH]c(-c3cnn(Cc4cccc(C(F)(F)F)c4)c3)nc2n(CC)c1=O [CVT-6883] | -4.68 |
| CN1CCCN(C(=O)c2cccc(-c3ccc(/C=C4/C(=O)Nc5ccc(Cl)cc54)o3)c2)CC1 [CX-6258] | -4.73 |
| Cc1nc(N)sc1-c1ccnc(Nc2ccc(N3CCOCC3)cc2)n1 [CYC-116] | -4.63 |
| O=C(O)/C=C/c1ccc(O)c(O)c1 [Caffeic acid] | -4.88 |
